Patent US20120329879A1, “BETA-ADRENERGIC RECEPTOR AGONISTS AND USES THEREOF” (THE UNIVERSITY OF TENNESSEE RESEARCH FOUNDATION, priority 2010, published 2012)
“Also recorded” adds a separate entry of the source.

What was measured:
PKA = PKA ELISA of retinal lysates after Compound 2 eye drops in diabetic rats; type: in vivo, rat; settings: topical 1 mM once daily for 4 days, compared with other doses (1 mM to 20 mM), hydrochloride
Method: To determine whether topical application of Compound 2 could reach the retina and elicit response, dose and time course studies were performed. For those studies, animals were made diabetic for 2 months using STZ. For 4 days, rats received a variety of doses of either Compound 2 (1 mM to 20 mM) or PBS once or twice each day. After the 4 days of eye drop treatment to both eyes, the diabetic and control animals were euthanized. Since beta-adrenergic receptor stimulation should increase cyclic adenosine monophosphase production and activate protein kinase A, retinal lysates were processed for a PKA ELISA (MesaCup PKA ELISA, Upstate, Temecula, Calif.). […] At 2 or 8 months, retinas were assessed for diabetes-induced degeneration of retinal cell numbers and retinal thickness (2 months) and for degenerate capillaries (8 months). TNF activity, cleaved caspase 3 and phosphorylation of insulin receptor beta and Akt were assessed at both time points. […]

[1] = Body weight, blood glucose, blood pressure and intraocular pressure in streptozotocin diabetic rats on eye drop therapy; type: in vivo, rat
Method: Male Lewis rats purchased from Charles River were used. Diabetic rats received a single injection of 60 mg/kg streptozotocin (Fisher, Pittsburgh, Pa.). […] All rats were weighed weekly and only rats with non-fasting blood glucose levels >250 mg/dl were considered diabetic. The designation of diabetic was made at the beginning of the experiments. Glucose was measured bimonthly. No insulin was administered to the rats at any time. To determine whether topical application of Compound 2 could reach the retina and elicit response, dose and time course studies were performed. For those studies, animals were made diabetic for 2 months using STZ. For 4 days, rats received a variety of doses of either Compound 2 (1 mM to 20 mM) or PBS once or twice each day. After the 4 days of eye drop treatment to both eyes, the diabetic and control animals were euthanized. […] After determining the optimal dose and time course for eye drop treatment for Compound 2, three groups of rats were used for this part of the study (control, diabetic (Diabetic), and diabetic+eye drop (Diab+2). Within 1 week of STZ-injection, 12 rats were put onto eye drop therapy. Rats on the eye drop therapy received a daily application of 4 drops of 1 mM Compound 2 to each eye. To verify that insulin levels were lost in the diabetic animals, insulin ELISA (Rat/Mouse Insulin ELISA kit, Linco, St. Charles, Mo.) was done on blood sampled from all rats at 2 months of age. Rats were sacrificed at 2 or 8 months of age. […] Analyses on the rats were done for acute changes (8 weeks of diabetes, 45 rats) and chronic changes (8 months of diabetes, 45 rats). […] Each month, all rats were tested for visual function: electroretinogram (ERG) and live retinal imaging were performed using Optical Coherence Topography (OCT). […] While the animals were asleep for ERG analyses, blood pressure and pulse were monitored to detect potential negative cardiovascular events.

[2] = system: electrical activity of the retina of diabetic rats; experiment: Electroretinogram (ERG) analyses in diabetic rats; type: in vivo, rat
Method: Each month of the experiment, electroretinogram (ERG) analyses were performed on rats from the three groups. Electroretinogram analyses were done to evaluate changes in electrical activity of the retina and as a measure of drug effectiveness. For the electroretinogram analyses, rats were dark adapted overnight. The following morning, the rats were anesthetized using an intraperitoneal injection of a ketamine (0.6 ml/kg body weight) and xylazine (0.375 ml/kg body weight) cocktail. The pupil of each eye was fully dilated using a 1% tropicamide solution (Alcon). To protect the eye and assist in maintaining a good electrical connection, a drop of methylcellulose solution was added to each eye (Celluvisc; Allergan, Irvine, Calif.). Body temperature was maintained at 37° C. with a water-based heating pad. The electroretinogram responses were recorded from both eyes simultaneously using platinum wire corneal electrodes, a forehead reference electrode, and ground electrode in the tail. The electroretinogram stimuli were delivered via the Diagnosys LLC system. All animals tested recovered from anesthesia after the electroretinogram recording sessions. No animals with gross cataract were used for electroretinogram analyses.
Electroretinogram responses were recorded in response to brief (4 ms) white LED and then from the Xenon arc lamp delivered at 2.1-second intervals for dim stimuli and 35 second frames for brighter stimuli. The range of stimulus intensities extended from −4.0 to 1.0 log cd*s/m2 for analysis of the b-wave amplitudes. Electroretinogram waveforms were recorded with a bandwidth of 0.3-500 Hz and sampled at 2 kHz by a digital acquisition system (Diagnosys) and were analyzed using MatLab (The MathWorks, Natick, Mass.). […]
For assessment of the oscillatory potentials, stimuli were administered at 3 log (cd*s/m2). Data analysis for the oscillatory potentials was obtained using MatLab software with a digital band-pass filter set for 60-300 Hz and the peak wavelets of the 4 wavelets were measured from trough to peak. […]

TNFalpha = TNFalpha ELISA of retina of diabetic rats; type: in vivo, rat
Text: The other eye from each animal was used for protein analyses for inflammatory markers and insulin receptor signaling. Western blotting was done as described (9). Antibodies used were total insulin receptor beta (1:500, Cellular Signaling, Danvers, Mass.), phosphorylated insulin receptor beta (Tyr 1150/1151, 1:500, Cellular Signaling, Danvers, Mass.), total Akt (1:500, Cellular Signaling, Danvers, Mass.), and phosphorylated Akt (Ser 473, 1:500, Cellular Signaling, Danvers, Mass.). For analyses of the data, mean densitometry values were obtained using the Kodak 2.0 software. The ratio of phosphorylated protein was compared to levels of total protein.
To determine the TNF concentration (Pierce, Rockford Ill.) and levels of cleaved caspase 3 (Cellular Signaling, Danvers, Mass.), ELISA analyses were done according to manufacturers instructions, except that equal protein was loaded into the cleaved caspase 3 ELISA so the optical density numbers can be used.

left ventricle = experiment: Heart left ventricle sections and collagen staining in type I diabetic rats; type: in vivo, rat; settings: type I diabetic rats treated daily with 1 mM
Text: Staining is for collagen intensity (FIG. 11B), which is increased in diabetes. Analyses on the rats were done for acute changes (8 weeks of diabetes, 45 rats) and chronic changes (8 months of diabetes, 45 rats). In addition to all measurements on the retina, tissue sections of the heart were taken at 8 weeks and 8 months to insure that there is no hypertrophy of the ventricles due to the drug. A Western blot for myosin light chain, a surrogate marker of cardiovascular hypertrophy was also performed. Each month, all rats receive 2 analyses of visual function, electroretinogram (ERG) and live retinal imaging using Optical Coherence […] (OCT). Retinal thickness and live retinal imaging were assessed using rodent OCT. This technology allows for non-invasive visualization of each layer of the retina for multiple testing of the same animal.

[3] = system: retinal vasculature of hypoxic mice; experiment: Oxygen-induced retinopathy model of proliferative diabetic retinopathy; type: in vivo; settings: 1 mM eye drops once daily on days 13, 14, 15, sacrificed day 17
Method: A model of oxygen-induced retinopathy was used to determine the effects in vivo of Compound 2 on mice. Mice were placed into a chamber with 100% oxygen at day 7 of life. On day 12, they were removed from the chamber into normal air. The retina interprets this as hypoxia and starts angiogenesis. Mice were treated with 1 mM Compound 2 in eye drops once daily on days 13, 14, 15. Animals were sacrificed on day 17. FIGS. 19A-19 Retinal flat mounts were prepared.

[4] = diabetic rats, daily 1 mM Compound 2 eye drops, in mmHg (unit assumed)
[5] = following Compound 2 treatment, in words

SMILES: COc1cc(CCNC[C@H](O)c2ccc(O)c(O)c2)cc(OC)c1OC.Cl (single isomer, unassigned) [Compound 2, 4-[1-hydroxy-2-(1-ethylamino-3-,4-,5-trimethoxyphenyl)ethyl]benzene-1,2-diol hydrochloride]
- PKA activity in the retina (PKA): showed the highest increase in PKA activity; also recorded: significantly increased PKA activity in the retina
- effect on body weight ([1]; daily administration of 1 mM, in words): did not affect
- Body wt ([1]; diabetic rats, daily 1 mM Compound 2 eye drops): 248.7 ± 8.3 g
- BP Systolic [1, 4]: 104.8 ± 13.7
- IOP [1, 4]: 8.08 ± 1.17
- effect on blood pressure [1, 5]: no observed effect
- effect on intraocular pressure [1, 5]: no observed effect
- retinal function (ERG), delayed treatment ([2]; 6 month diabetic rats receiving Compound 2 therapy for 2 months): had improved retinal function
- B-wave amplitude ([2]; daily topical 1 mM from one week after STZ, ERG after 6 weeks): inhibited the loss of B-wave amplitude
- ERG amplitudes (a-wave, b-wave, oscillatory potentials) ([2]; diabetic rats, topical 1 mM daily from onset, over 8 months, hydrochloride): inhibited the loss of amplitude of B-wave and oscillatory potentials; also recorded: can inhibit the loss of all three components of the ERG over the entire 8-month period
- TNFalpha levels in retina, 8 months (TNFalpha; 1 mM eye drops, 8 months): levels similar to Ctrl rats
- TNFα concentration throughout the treatment regimen (TNFalpha; eye drop therapy): effective in reducing TNFα concentration throughout the treatment regimen
- left ventricle compared to untreated diabetic rats (left ventricle): no difference in the left ventricle
- development of retinal vasculature (retinal flat mounts) [3]: the retina is much more developed and appears normal
